Test results published in US9108984B2, “Substituted diamino-pyrimidine and diamino-pyridine derivatives as PI3K inhibitors” (Incyte Corporation, priority 2011, dated 2015).

Experiments:
PI3Kδ (p110δ/p85α) = PI3Kδ (p110δ/p85α) (Homo sapiens (Human), UniProt O00329); test: PI3Kδ scintillation proximity assay (enzyme assay); assay type: biochemical; details: PI3Kδ SPA, 20 μM ATP, 20 μM PIP2, 210 min
From the text: PI3Kδ Scintillation Proximity Assay
[γ-^33P]ATP (10 mCi/mL) was purchased from Perkin-Elmer (Waltham, Mass.). Lipid kinase substrate, D-myo-Phosphatidylinositol 4,5-bisphosphate (PtdIns(4,5)P2)D (+)-sn-1,2-di-O-octanoylglyceryl, 3-O-phospho linked (PIP2), CAS 204858-53-7, was purchased from Echelon Biosciences (Salt Lake City, Utah). PI3Kδ (p110δ/p85α) was purchased from Millipore (Bedford, Mass.). ATP, MgCl2, DTT, EDTA, MOPS and CHAPS were purchased from Sigma-Aldrich (St. Louis, Mo.). Wheat Germ Agglutinin (WGA) YSi SPA Scintillation Beads was purchased from GE healthcare life sciences (Piscataway, N.J.).
The kinase reaction was conducted in polystyrene 384-well matrix white plate from Thermo Fisher Scientific in a final volume of 25 μL. Inhibitors were first diluted serially in DMSO and added to the plate wells before the addition of other reaction components. The final concentration of DMSO in the assay was 0.5%. The PI3K assays were carried out at room temperature in 20 mM MOPS, pH 6.7, 10 mM MgCl2, 5 mM DTT and CHAPS 0.03%. Reactions were initiated by the addition of ATP, the final reaction mixture consisted of 20 μM PIP2, 20 μM ATP, 0.2 μCi [γ-^33P] ATP, 4 nM PI3Kδ. […] After the plate sealing, plates were shaken overnight at room temperature and centrifuged at 1800 rpm for 10 minutes, the radioactivity of the product was determined by scintillation counting on Topcount (Perkin-Elmer). […]

[1] = test system: Pfeiffer cells (diffuse large B cell lymphoma); test: Pfeiffer cell proliferation assay; assay type: cell-based; details: Homo sapiens, [3H]-thymidine incorporation, 3-4 days
Protocol: Pfeiffer Cell Proliferation Assay
Pfeiffer cell line (diffuse large B cell lymphoma) was purchased from ATCC (Manassas, Va.) and maintained in the culture medium recommended (RPMI and 10% FBS). To measure the anti-proliferation activity of the compounds, the Pfeiffer cells were plated with the culture medium (2×10^3 cells/well/per 200 μl) into 96-well ultra-low binding plates (Corning, Corning, N.Y.), in the presence or absence of a concentration range of test compounds. After 3-4 days, [^3H]-thymidine (1 μCi/well) (PerkinElmer, Boston, Mass.) in PBS wass then added to the cell culture for an additional 12 hours before the incorporated radioactivity was separated by filtration with water through GF/B filters (Packard Bioscience, Meridenj, Conn.) and measured by liquid scintillation counting with a TopCount (Packard Bioscience).

Chain of PI3Kδ (p110δ/p85α) (O00329 whole entry): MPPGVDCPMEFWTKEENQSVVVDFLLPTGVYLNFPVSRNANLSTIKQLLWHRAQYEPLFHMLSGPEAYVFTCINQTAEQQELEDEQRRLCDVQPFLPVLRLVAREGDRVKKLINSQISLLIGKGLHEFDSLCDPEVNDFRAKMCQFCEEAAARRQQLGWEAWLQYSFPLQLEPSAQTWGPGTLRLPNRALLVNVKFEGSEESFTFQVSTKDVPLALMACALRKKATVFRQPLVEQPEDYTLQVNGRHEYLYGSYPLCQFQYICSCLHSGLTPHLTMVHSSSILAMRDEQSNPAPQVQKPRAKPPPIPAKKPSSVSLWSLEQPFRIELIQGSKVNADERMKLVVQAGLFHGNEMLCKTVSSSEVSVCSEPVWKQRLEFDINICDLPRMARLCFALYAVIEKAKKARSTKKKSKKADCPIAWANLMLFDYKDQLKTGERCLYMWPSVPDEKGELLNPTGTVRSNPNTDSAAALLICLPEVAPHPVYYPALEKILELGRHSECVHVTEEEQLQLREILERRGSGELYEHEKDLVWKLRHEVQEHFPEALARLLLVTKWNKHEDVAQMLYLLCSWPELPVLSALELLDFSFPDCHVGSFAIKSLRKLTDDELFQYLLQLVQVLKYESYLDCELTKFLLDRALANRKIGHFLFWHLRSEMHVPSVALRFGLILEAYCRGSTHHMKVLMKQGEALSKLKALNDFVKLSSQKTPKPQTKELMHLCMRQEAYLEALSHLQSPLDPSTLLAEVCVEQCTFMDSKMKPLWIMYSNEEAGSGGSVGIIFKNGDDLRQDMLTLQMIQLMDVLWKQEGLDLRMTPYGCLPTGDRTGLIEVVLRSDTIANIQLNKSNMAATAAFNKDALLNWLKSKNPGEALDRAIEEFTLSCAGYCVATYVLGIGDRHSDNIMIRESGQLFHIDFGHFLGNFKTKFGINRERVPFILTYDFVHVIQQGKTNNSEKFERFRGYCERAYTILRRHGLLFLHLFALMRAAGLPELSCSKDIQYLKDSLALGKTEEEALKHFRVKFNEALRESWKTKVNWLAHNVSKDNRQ
Chain of PI3Kδ (p110δ/p85α) (P27986 whole entry partner): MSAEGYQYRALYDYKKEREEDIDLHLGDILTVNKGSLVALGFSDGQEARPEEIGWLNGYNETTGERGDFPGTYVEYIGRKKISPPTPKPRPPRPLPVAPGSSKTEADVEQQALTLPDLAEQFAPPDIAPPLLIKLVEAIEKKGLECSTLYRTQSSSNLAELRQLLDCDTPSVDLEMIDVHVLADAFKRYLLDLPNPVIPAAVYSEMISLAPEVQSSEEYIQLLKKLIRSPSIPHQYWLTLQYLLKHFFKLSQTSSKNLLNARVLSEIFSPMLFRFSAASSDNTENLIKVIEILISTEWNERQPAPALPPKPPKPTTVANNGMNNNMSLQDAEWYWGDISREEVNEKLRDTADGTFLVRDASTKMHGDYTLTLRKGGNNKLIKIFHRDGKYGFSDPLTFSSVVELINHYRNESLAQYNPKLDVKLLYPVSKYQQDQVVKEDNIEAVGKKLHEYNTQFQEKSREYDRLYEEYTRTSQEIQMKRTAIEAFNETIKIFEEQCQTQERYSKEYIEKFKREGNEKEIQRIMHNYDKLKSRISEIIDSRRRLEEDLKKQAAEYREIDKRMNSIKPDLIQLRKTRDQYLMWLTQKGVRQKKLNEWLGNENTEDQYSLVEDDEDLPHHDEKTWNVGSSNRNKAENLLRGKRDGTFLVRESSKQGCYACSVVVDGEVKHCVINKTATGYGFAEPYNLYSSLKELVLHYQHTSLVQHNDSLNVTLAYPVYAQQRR

Row | IC50 (PI3Kδ (p110δ/p85α)) [nM] | IC50 [1] [nM] | Compound
1 | < 20 | < 20 | CC(Nc1ncnc(N)c1C#N)c1cc(Cl)c2ccnnc2c1-c1cccc(F)c1 (single isomer, unassigned) [Example 1, 4-Amino-6-({1-[5-chloro-8-(3-fluorophenyl)cinnolin-7-yl]ethyl}amino)-pyrimidine-5-carbonitrile]
2 | < 20 | < 20 | Cc1csc2nc([C@H](C)Nc3ncnc(N)c3C#N)c(-c3cccc(F)c3)c(=O)n12 [Example 2, 4-amino-6-({(1S)-1-[6-(3-fluorophenyl)-3-methyl-5-oxo-5H-[1,3]thiazolo[3,2-a]pyrimidin-7-yl]ethyl}amino)pyrimidine-5-carbonitrile]
